Where two headings read alike, the source gives them in different places.
Tests used:
[1] = test system: patients with geographic atrophy (GA) secondary to age-related macular degeneration (AMD); assay: DERBY Phase 3 study: GA lesion growth in study eye by fundus autofluorescence; format: in vivo, human; conditions: for reduction in GA lesion growth from baseline compared to sham: over 24 months; for reduction in lesion growth in the study eye versus the untreated study eye: bilateral GA; for reduction in lesion growth in the study eye versus the untreated study eye / percentage reduction versus sham pooled: 18 months
From the text: This Example describes 12-month results from two Phase 3 multi-center, randomized, double-masked, sham-controlled studies (“DERBY” and “OAKS”) to compare the efficacy and safety of intravitreal APL-2 (pegcetacoplan, also referred to as “Study Drug” in this Example) therapy with sham injections in patients with geographic atrophy (GA) secondary to age-related macular degeneration (AMD).
To participate in the studies, subjects must have been diagnosed with GA of the macula secondary to AMD in the study eye. At screening, male and female subjects were required to fulfill all of the following inclusion criteria to be eligible for participation in the study. If both eyes met the inclusion criteria, the eye with the worst normal luminance visual acuity at the screening visit was designated as the study eye. If both eyes had the same visual acuity, the right eye was selected as the study eye. Ocular-specific inclusion criteria applied to the study eye only, unless otherwise specified.
The design of the DERBY and OAKS studies are schematically depicted in FIG. 2. Each subject was assigned a unique screening number after signing the informed consent. Subjects who completed the study screening assessments and met all the eligibility criteria entered the study and were randomized on Day 1. As part of the screening process, the reading center evaluated FAF, OCT, Digital Color Fundus Photograph (DCFP), Near Infrared Reflectance (NIR), and fluorescein angiography (FA) to provide an objective assessment of subject eligibility. Subjects were randomized 2:2:1:1 to receive treatment with Study Drug monthly (PM), Study Drug every other month (PEOM), sham injection monthly (SM) or sham injection every other month (SEOM), respectively.
The Study Drug was pegcetacoplan (also referred to as “APL-2”) (see FIG. 1), which was provided for intravitreal injection at 15 mg/0.1 mL (150 mg/mL) as a sterile, isotonic solution of pegcetacoplan in acetate-buffer, pH 5.0, containing trehalose, supplied in stoppered glass vials.
The primary endpoint in the studies was the change from baseline to Month 12 in total area of GA lesion(s) in the study eye (in mm^2) based on Fundus Autofluorescence (FAF). Key secondary endpoints included change from baseline in the mean threshold sensitivity of all points (study eye) assessed by mesopic microperimetry at Month 24; change from baseline in monocular maximum reading speed (study eye), at Month 24 as assessed by MNRead or Radner reading charts (in select sites); change from baseline in mean FRI Index score (subject-level assessment) at Month 24; and change from baseline in NL-BCVA score (study eye) at Month 24 as assessed by Early Treatment Diabetic Retinopathy Study (ETDRS) chart. Additional secondary endpoints included change from baseline in LL-BCVA score (study eye) over time as assessed by ETDRS chart; change from baseline in the total area of GA lesion(s) in the study eye (in mm^2) as assessed by FAF over time other than Month 12; change from baseline in monocular critical print size (study eye), as assessed by MNRead or Radner reading charts (in select sites) over time; change from baseline in the NEI VFQ-25 distance activity subscale score (in select sites) (subject level assessment) over time; change from baseline in the number of scotomatous points assessed by mesopic microperimetry over time; and change from baseline in the mean threshold sensitivity within 500 microns outside the GA lesion, (perilesional points) assessed by mesopic microperimetry over time.
Two sham treatment arms (SM and SEOM) were pooled into a single control (Sham) group for analyses.
Subjects were analyzed in the treatment arm assigned at randomization.
Unless otherwise noted, hypothesis testing and estimation of treatment effects will be performed with a mixed effect model for repeated measure (MMRM) that includes data from all three treatment arms (PM, PEOM, and Sham). […]

patients with GA = conditions: FILLY, month 12, cited from earlier work
[2] = post-hoc quartiles of GA lesion growth over 18 months (FIG. 27)

Poly(oxy-1,2-ethanediyl), α-hydro-ω-hydroxy-, 15,15′-diester with N-acetyl-L-isoleucyl-L-cysteinyl-L-valyl-1-methyl-L-tryptophyl-L-glutaminyl-L-α-aspartyl-L-tryptophylglycyl-L-alanyl-L-histidyl-L-arginyl-L-cysteinyl-L-threonyl-2-[2-(2-aminoethoxy) ethoxy]acetyl-N^6-carboxy-L-lysinamide cyclic (2->12)-(disulfide) [pegcetacoplan]
reduction of GA lesion growth versus sham ([1]; EOM, months 18-24, p=0.0002): 29%
reduction in GA lesion growth from baseline compared to sham ([1]; EOM, p 0.0030 nominal): 16%
reduction in lesion growth in the study eye versus the untreated study eye ([1]; every other month, p<0.0001): 16%
reduction in lesion growth in the study eye versus the untreated study eye ([1]; monthly, p=0.0053): 12%
reduction in GA lesion growth versus sham ([1]; distance >250 microns, every other month, p=0.0689): 19%
reduction in GA lesion growth versus sham ([1]; distance >250 microns, monthly, p=0.2691): 13%
reduction in GA lesion growth versus sham ([1]; distance ≤250 microns, every other month, p=0.0724): 12%
reduction in GA lesion growth versus sham ([1]; distance ≤250 microns, monthly, p=0.0490): 12%
percentage reduction versus sham pooled ([1]; every other month, >50 microns, p=0.0047): 24%
percentage reduction versus sham pooled ([1]; every other month, >100 microns, p=0.0022): 26%
percentage reduction versus sham pooled ([1]; every other month, >150 microns, p=0.0076): 24%
percentage reduction versus sham pooled ([1]; every other month, >200 microns, p 0.0229): 20%
reduction in GA lesion growth vs pooled sham ([1]; every other month, month 12, p=0.0750): 11%
reduction in GA lesion growth, covariate-adjusted post-hoc analysis ([1]; every other month, month 18, p=0.0023): 16%
reduction in extrafoveal GA lesion growth, covariate-adjusted ([1]; every other month, month 18, p=0.0035): 24%
reduction in extrafoveal GA lesion growth vs pooled sham ([1]; every other month, month 18, p=0.0075): 23%
reduction in GA lesion growth vs pooled sham ([1]; every other month, month 18, p=0.0332 nominal): 12%
reduction in foveal GA lesion growth, covariate-adjusted ([1]; every other month, month 18, p=0.1723): 9%
reduction in foveal GA lesion growth vs pooled sham ([1]; every other month, month 18, p=0.5538): 4%
reduction in GA lesion growth vs pooled sham ([1]; every other month, months 6-12 segment (FIG. 12A)): 16%
percentage reduction versus sham pooled ([1]; monthly, >50 microns, p=0.0433): 18%
percentage reduction versus sham pooled ([1]; monthly, >100 microns, p=0.0266): 20%
percentage reduction versus sham pooled ([1]; monthly, >150 microns, p 0.0468): 19%
percentage reduction versus sham pooled ([1]; monthly, >200 microns, p=0.0985): 16%
reduction in GA lesion growth vs pooled sham ([1]; monthly, month 12, p=0.0528): 12%
reduction in GA lesion growth vs pooled sham ([1]; monthly, month 18, p 0.0254 nominal): 13%
reduction in GA lesion growth, covariate-adjusted post-hoc analysis ([1]; monthly, month 18, p=0.0024): 16%
reduction in foveal GA lesion growth, covariate-adjusted ([1]; monthly, month 18, p=0.0280): 14%
reduction in extrafoveal GA lesion growth, covariate-adjusted ([1]; monthly, month 18, p=0.0380): 18%
reduction in extrafoveal GA lesion growth vs pooled sham ([1]; monthly, month 18, p=0.0606): 17%
reduction in foveal GA lesion growth vs pooled sham ([1]; monthly, month 18, p=0.2015): 9%
reduction in GA lesion growth vs pooled sham ([1]; monthly, months 6-12 segment (FIG. 12A)): 17%
reduction of GA lesion growth versus sham ([1]; monthly, months 18-24, p<0.0001): 36%
reduction in GA lesion growth from baseline compared to sham ([1]; monthly, p=0.0004 nominal): 19%
decrease of patients in Q4 (fast progressors), relative to sham [1, 2]: 33%
increase of patients in Q1 (slow progressors), relative to sham [1, 2]: 15%
reduction in change from baseline in square root GA lesion size vs sham (patients with GA; every other month, p=0.067): 20%
reduction in change from baseline in square root GA lesion size vs sham (patients with GA; monthly, p=0.008): 29%
